Test results taken from patent US11208412B2 (DAEGU-GYEONGBUK MEDICAL INNOVATION FOUNDATION, priority 2017, dated 2021).

Experiments:
Assay in all cases: Kinase selectivity, DiscoverX scanMAX Kinase assay panel (% control)
Format in all cases: binding
[1] = molecular target: T1, kinases of the scanMAX Kinase assay panel (Homo sapiens, UniProt Q9NRP7); details: kinase STK36; 1 uM in DMSO
T1 construct: purchased DiscoverX Co. (contract measurement) scanMAX Kinase assay panel
T1 sequence (Q9NRP7 1-1315): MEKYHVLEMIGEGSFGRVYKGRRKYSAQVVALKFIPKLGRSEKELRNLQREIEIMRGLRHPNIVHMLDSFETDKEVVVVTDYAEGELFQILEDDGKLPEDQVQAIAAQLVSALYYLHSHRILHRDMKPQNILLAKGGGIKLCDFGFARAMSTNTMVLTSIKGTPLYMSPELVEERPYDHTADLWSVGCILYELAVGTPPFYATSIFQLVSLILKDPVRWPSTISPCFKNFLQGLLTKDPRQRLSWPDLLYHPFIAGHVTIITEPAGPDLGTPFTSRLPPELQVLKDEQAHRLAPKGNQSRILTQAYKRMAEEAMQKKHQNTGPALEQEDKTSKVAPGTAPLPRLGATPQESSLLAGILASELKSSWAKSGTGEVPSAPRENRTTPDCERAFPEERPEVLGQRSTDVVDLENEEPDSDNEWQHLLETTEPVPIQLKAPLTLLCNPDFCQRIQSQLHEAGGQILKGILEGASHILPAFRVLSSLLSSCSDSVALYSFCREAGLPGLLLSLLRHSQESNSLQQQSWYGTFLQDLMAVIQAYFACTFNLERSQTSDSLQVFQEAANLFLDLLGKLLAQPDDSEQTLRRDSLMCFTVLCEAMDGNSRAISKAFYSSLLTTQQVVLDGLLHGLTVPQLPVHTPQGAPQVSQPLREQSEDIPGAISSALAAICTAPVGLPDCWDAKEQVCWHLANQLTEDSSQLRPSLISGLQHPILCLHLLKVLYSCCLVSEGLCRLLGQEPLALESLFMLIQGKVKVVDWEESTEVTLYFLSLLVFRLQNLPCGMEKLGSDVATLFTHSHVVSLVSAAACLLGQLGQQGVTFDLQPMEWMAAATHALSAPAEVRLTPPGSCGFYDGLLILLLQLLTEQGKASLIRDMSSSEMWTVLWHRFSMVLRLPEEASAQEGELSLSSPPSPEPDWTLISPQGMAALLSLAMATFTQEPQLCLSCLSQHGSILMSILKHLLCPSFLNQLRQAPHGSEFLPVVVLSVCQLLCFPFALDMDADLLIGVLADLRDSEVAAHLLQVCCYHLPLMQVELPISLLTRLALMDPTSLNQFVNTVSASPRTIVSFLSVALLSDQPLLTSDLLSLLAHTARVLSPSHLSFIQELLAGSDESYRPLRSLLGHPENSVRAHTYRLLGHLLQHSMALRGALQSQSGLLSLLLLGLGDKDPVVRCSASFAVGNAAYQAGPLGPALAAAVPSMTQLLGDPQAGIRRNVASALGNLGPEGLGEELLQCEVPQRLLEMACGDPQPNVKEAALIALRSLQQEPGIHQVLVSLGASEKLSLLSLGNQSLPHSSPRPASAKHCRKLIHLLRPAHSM
Outline: (§1)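 Read-out is % control, normalised so a positive-control compound sits at 0% and DMSO at 100%: (test − positive)/(negative − positive)×100. Each kinase received the compound at 1 uM in DMSO. A value below 35% counts as activity.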

[2] = molecular target: T2, kinases of the scanMAX Kinase assay panel (Homo sapiens, UniProt Q07002); details: PCTK3; 1 uM
T2 construct: purchased DiscoverX Co. (contract measurement) scanMAX Kinase assay panel
Outline: as §1

[3] = molecular target: T3, kinases of the scanMAX Kinase assay panel (Homo sapiens, UniProt Q00537); details: PCTK2; 1 uM
T3 construct: purchased DiscoverX Co. (contract measurement) scanMAX Kinase assay panel
Outline: as §1

[4] = molecular target: T4, kinases of the scanMAX Kinase assay panel (Homo sapiens, UniProt P00519, E255K); details: ABL1(E255K)-phosphorylated; 1 uM
T4 construct: purchased DiscoverX Co. (contract measurement) scanMAX Kinase assay panel
Outline: as §1

[5] = molecular target: T5, kinases of the scanMAX Kinase assay panel (Homo sapiens, UniProt Q9HBH9); details: MKNK2; 1 uM
T5 construct: purchased DiscoverX Co. (contract measurement) scanMAX Kinase assay panel
Outline: as §1

[6] = molecular target: T6, kinases of the scanMAX Kinase assay panel (Homo sapiens, UniProt O75914); details: PAK3; 1 uM
T6 construct: purchased DiscoverX Co. (contract measurement) scanMAX Kinase assay panel
Outline: as §1

[7] = molecular target: T7, kinases of the scanMAX Kinase assay panel (Homo sapiens, UniProt Q9H2K8); details: kinase TAOK3; 1 uM in DMSO
T7 construct: purchased DiscoverX Co. (contract measurement) scanMAX Kinase assay panel
T7 sequence (Q9H2K8 1-898): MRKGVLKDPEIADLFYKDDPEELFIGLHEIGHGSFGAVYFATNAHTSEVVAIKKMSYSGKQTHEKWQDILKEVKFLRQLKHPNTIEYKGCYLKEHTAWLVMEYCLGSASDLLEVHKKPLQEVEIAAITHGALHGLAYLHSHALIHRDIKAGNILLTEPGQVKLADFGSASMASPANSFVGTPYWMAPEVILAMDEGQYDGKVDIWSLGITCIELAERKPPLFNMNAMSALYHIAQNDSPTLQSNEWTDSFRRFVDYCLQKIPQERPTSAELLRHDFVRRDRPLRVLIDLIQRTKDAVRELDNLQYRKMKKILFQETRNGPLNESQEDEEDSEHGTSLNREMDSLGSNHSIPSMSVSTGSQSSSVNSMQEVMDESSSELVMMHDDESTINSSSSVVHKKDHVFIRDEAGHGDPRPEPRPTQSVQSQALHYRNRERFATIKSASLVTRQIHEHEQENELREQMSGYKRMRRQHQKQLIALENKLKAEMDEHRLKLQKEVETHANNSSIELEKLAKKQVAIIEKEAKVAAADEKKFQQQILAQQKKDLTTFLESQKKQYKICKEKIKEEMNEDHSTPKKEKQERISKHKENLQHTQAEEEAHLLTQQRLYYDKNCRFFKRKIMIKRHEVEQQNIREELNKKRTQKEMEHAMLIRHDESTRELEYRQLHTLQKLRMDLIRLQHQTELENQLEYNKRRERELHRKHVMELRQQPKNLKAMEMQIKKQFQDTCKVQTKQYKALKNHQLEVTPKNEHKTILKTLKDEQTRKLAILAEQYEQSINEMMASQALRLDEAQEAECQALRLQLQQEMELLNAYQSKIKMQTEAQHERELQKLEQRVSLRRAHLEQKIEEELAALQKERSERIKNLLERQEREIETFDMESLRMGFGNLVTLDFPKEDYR
Outline: as §1

T4 sequence (P00519 whole entry E255K): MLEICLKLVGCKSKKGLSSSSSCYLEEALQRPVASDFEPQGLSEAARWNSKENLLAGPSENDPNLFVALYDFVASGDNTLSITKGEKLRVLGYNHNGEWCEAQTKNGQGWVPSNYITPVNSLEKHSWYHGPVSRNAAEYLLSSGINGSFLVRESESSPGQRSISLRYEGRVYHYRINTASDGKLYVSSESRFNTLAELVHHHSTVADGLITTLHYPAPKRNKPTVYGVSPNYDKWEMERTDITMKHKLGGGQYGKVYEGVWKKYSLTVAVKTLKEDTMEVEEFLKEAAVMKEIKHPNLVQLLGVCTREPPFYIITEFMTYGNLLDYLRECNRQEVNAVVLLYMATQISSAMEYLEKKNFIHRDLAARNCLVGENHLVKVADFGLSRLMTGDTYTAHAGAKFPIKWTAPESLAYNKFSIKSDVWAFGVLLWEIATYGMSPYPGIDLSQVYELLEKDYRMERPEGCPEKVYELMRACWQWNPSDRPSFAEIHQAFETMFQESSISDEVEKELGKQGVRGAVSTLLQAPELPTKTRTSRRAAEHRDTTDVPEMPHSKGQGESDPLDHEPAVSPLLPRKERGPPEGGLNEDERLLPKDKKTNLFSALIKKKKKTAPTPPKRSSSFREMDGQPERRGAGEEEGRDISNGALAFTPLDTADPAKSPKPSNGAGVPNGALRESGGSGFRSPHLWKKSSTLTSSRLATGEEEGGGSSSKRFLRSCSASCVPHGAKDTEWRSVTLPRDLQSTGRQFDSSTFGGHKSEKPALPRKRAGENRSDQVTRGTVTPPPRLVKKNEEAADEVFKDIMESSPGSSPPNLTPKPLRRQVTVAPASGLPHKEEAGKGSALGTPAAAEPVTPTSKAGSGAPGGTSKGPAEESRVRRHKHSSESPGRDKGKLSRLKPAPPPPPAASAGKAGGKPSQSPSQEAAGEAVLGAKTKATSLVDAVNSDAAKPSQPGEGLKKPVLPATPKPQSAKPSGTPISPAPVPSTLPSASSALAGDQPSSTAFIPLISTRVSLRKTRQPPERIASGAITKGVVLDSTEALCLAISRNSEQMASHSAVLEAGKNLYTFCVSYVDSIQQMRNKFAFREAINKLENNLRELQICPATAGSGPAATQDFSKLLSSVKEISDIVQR
T6 sequence (O75914 whole entry): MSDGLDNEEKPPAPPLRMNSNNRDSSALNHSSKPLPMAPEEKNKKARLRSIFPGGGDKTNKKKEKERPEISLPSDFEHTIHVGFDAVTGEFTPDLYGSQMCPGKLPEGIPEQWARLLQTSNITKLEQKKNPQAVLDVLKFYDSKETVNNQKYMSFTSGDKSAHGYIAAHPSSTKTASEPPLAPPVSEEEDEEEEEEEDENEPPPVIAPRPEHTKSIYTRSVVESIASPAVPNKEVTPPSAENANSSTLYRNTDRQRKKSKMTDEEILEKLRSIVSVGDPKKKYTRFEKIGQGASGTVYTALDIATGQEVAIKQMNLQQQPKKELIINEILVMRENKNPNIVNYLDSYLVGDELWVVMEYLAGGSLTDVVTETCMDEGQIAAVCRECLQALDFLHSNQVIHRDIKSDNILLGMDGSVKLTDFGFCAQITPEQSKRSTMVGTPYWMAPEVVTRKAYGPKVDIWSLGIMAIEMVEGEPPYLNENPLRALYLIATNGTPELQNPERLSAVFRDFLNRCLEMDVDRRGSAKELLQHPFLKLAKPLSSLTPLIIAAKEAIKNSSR
T2 sequence (Q07002 whole entry): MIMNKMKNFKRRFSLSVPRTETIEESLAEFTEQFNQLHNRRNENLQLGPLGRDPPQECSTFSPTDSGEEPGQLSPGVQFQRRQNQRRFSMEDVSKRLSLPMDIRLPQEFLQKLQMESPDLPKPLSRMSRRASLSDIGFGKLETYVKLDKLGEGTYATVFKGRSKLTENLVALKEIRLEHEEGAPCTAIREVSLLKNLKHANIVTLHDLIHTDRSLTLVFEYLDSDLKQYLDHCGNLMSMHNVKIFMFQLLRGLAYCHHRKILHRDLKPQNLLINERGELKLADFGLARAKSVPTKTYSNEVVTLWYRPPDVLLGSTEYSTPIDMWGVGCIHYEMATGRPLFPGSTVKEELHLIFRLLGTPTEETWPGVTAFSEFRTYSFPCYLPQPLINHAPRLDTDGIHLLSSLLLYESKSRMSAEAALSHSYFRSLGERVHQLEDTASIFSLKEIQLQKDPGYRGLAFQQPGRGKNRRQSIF
T3 sequence (Q00537 whole entry): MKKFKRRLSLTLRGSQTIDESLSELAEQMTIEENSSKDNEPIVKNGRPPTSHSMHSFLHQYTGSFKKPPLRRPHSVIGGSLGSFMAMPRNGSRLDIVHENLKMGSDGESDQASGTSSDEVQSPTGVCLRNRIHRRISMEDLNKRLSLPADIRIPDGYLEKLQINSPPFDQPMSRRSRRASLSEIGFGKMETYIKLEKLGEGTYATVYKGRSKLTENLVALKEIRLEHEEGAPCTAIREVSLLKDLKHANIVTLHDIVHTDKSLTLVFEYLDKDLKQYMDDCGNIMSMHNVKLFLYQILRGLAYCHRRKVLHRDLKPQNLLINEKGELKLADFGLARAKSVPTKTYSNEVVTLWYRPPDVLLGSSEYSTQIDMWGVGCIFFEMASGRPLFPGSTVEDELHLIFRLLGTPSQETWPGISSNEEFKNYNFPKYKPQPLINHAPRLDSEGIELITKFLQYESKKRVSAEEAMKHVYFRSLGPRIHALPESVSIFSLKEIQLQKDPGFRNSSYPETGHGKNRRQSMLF
T5 sequence (Q9HBH9 whole entry): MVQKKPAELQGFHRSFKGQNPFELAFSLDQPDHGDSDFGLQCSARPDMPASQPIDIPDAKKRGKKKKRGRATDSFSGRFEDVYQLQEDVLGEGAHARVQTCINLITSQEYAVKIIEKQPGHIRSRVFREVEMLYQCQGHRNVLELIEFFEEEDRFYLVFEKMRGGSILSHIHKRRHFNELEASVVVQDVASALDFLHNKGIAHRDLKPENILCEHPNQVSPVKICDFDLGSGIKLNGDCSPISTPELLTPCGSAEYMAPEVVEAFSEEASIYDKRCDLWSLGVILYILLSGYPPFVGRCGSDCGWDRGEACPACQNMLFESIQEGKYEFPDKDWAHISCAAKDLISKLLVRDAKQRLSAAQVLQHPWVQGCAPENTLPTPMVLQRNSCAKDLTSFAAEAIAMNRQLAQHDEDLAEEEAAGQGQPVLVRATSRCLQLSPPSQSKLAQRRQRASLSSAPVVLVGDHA

CCNc1nc(Nc2ccc(C(=O)N3CCC(N4CCOCC4)CC3)cc2OC)nc2[nH]cc(C(F)(F)F)c12 [Example 104, (4-((4-(ethylamino)-5-(trifluoromethyl)-7H-pyrrolo[2,3-d]pyrimidine-2-yl)amino)-3-methoxyphenyl)(4-morpholinopiperidine-1-yl)methanone]
remaining binding at 1 µM [1]: 100% | remaining binding at 1 µM [2]: 94% | remaining binding at 1 µM [3]: 99% | remaining binding at 1 µM [4]: 100% | remaining binding at 1 µM [5]: 39% | remaining binding at 1 µM [6]: 100% | remaining binding at 1 µM [7]: 81%

CNc1nc(Nc2ccc(C(=O)N3CCOCC3)cc2OC)nc2[nH]cc(C#N)c12 [Example 1, 2-((2-methoxy-4-(morpholine-4-carbonyl)phenyl)amino)-4-(methylamino)-7H-pyrrolo[2,3-d]pyrimidine-5-carbonitrile]
remaining binding at 1 µM [1]: 97% | remaining binding at 1 µM [2]: 96% | remaining binding at 1 µM [3]: 98% | remaining binding at 1 µM [4]: 91% | remaining binding at 1 µM [5]: 31% | remaining binding at 1 µM [6]: 68% | remaining binding at 1 µM [7]: 81%

CC1(Nc2nc(Nc3cnn([C@H]4CCN(C5COC5)C[C@@H]4F)c3Cl)nc3[nH]cc(C#N)c23)CC1 [Example 52, 2-((5-chloro-1-((3S,4S)-3-fluoro-1-(oxetane-3-yl)piperidine-4-yl)-1H-pyrazole-4-yl)amino)((1-methylcyclopropyl)amino)-7H-pyrrolo[2,3-d]pyrimidine-5-carbonitrile]
remaining binding at 1 µM [1]: 85% | remaining binding at 1 µM [2]: 81% | remaining binding at 1 µM [3]: 88% | remaining binding at 1 µM [4]: 0.6% | remaining binding at 1 µM [5]: 5.5% | remaining binding at 1 µM [6]: 17% | remaining binding at 1 µM [7]: 8.6%
